According to ChEMBL document CHEMBL4400508, “Targeted Endocrine Therapy: Design, Synthesis, and Proof-of-Principle of 17β-Hydroxysteroid Dehydrogenase Type 2 Inhibitors in Bone Fracture Healing” (J Med Chem, 2019):

How the values were obtained:
[1] = target: T1, PXR (NR1I2); CYP3 induction (Homo sapiens, UniProt O75469); test: in vitro
T1 sequence (O75469 whole entry): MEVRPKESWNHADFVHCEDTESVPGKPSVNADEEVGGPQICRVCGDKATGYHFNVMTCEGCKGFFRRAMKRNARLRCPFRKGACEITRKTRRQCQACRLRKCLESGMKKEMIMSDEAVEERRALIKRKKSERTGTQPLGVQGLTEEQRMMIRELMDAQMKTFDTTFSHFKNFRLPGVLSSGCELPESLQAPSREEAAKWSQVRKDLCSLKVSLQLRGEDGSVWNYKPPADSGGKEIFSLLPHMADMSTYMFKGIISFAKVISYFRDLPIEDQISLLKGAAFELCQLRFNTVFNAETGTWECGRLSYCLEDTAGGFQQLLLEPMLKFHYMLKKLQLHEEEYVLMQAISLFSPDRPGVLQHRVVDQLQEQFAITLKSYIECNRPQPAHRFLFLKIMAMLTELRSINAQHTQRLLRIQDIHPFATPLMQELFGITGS
Description: Agonist activity at recombinant human PXR assessed as induction of CYP3 at 3.16 uM after 60 mins relative to control

[2] = target: T2, AhR (aryl hydrocarbon receptor); CYP1 induction (Homo sapiens, UniProt P35869); test: in vitro; settings: hepg2
T2 sequence (P35869 whole entry): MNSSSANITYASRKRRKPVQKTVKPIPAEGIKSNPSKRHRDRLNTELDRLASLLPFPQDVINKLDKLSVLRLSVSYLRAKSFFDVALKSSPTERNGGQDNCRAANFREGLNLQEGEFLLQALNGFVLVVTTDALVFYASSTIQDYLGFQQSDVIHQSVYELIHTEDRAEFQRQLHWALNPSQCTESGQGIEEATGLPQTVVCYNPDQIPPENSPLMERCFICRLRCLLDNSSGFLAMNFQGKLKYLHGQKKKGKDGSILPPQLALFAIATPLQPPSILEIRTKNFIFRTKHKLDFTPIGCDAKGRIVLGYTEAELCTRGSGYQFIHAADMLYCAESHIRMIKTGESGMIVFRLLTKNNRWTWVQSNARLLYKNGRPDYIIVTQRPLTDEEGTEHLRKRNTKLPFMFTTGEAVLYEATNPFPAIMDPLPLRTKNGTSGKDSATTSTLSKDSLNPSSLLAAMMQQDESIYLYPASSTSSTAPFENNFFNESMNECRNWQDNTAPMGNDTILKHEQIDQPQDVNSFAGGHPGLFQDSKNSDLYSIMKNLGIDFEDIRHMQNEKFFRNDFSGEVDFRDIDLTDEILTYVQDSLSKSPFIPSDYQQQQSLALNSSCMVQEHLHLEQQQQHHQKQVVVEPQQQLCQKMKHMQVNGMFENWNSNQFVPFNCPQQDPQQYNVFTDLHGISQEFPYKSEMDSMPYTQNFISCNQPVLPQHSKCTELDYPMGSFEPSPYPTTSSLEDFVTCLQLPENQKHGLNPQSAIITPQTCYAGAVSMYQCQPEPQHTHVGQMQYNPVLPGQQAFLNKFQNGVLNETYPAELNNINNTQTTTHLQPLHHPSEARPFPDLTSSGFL
Description: Agonist activity at AhR in human HepG2 assessed as induction of CYP1 at 3.16 uM relative to control

[3] = in vitro; settings: human, s9
Description: Half life in human liver S9 fraction in presence of NADPH, UDPGA, PAPS

[4] = target: T3, 17-beta-hydroxysteroid dehydrogenase type 1 (Mus musculus, UniProt P51656); format: cell-based, HEK293
T3 sequence (P51656 whole entry): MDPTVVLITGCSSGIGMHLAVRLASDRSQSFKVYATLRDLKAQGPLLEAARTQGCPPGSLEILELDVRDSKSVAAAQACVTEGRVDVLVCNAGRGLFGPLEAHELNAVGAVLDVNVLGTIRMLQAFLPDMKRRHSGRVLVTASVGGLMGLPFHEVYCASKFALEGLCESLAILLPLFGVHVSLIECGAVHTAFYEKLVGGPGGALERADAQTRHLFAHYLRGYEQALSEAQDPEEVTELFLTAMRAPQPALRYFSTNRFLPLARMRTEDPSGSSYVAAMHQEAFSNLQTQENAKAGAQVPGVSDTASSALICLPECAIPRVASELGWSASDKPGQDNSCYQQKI
Description: Inhibition of recombinant mouse 17beta-HSD1 expressed in HEK293 cells using [3H]-E1 as substrate in presence of NAD+ by radio-HPLC analysis

[5] = target: T4, constitutive androstane receptor (NR1I3); CYP2 induction (Homo sapiens, UniProt Q14994); test: in vitro
T4 sequence (Q14994 whole entry): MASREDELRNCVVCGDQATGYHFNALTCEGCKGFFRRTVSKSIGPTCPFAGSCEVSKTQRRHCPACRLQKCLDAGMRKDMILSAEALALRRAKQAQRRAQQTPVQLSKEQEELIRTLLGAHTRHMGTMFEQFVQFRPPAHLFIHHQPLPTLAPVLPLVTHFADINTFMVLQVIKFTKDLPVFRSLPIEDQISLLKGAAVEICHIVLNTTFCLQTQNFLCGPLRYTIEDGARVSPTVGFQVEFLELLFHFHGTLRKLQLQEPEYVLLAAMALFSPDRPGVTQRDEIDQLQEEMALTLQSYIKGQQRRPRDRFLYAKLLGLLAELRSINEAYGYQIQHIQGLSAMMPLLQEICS
Description: Agonist activity at recombinant human constitutive androstane receptor assessed as induction of CYP2 at 3.16 uM relative to control

[6] = target: T5, Estradiol 17-beta-dehydrogenase 2 (Mus musculus, UniProt P51658); test: biochemical; format: tissue-based, Liver
T5 sequence (P51658 whole entry): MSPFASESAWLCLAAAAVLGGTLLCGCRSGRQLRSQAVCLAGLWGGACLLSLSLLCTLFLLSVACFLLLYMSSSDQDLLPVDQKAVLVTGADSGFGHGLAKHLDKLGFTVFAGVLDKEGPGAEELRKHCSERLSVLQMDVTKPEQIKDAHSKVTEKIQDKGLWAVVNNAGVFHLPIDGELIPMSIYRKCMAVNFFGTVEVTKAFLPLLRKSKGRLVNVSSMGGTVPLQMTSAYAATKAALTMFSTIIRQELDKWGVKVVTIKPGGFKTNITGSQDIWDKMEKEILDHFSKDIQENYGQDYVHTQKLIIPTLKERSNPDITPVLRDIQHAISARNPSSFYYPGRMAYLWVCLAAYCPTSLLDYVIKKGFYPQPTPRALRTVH
Description: Inhibition of mouse liver homogenate 17beta-HSD2 using [3H]-E2 as substrate in presence of NAD+ by radio-HPLC analysis

[7] = target: T6, 17-beta-hydroxysteroid dehydrogenase type 1 (Homo sapiens, UniProt P14061)
T6 sequence (P14061 whole entry): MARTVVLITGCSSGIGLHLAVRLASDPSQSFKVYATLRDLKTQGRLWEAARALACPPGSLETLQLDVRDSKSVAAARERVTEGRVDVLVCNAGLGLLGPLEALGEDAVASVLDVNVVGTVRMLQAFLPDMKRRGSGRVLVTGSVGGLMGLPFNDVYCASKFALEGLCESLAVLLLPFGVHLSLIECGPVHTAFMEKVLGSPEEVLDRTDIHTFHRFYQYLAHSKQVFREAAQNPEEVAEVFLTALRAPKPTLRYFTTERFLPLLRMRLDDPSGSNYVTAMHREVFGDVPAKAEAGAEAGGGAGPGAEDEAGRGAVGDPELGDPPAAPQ
Description: Inhibition of human placental cytosolic fraction 17beta-HSD1 using [3H]-E1 as substrate in presence of NAD+ by radio-HPLC analysis

| Compound | half-life [3] [min] | IC50 [6] [nM] | IC50 [7] [nM] | further results |
| --- | --- | --- | --- | --- |
| O=C(c1ccc(-c2cccc(NS(=O)(=O)c3ccccc3OC(F)(F)F)c2)s1)c1cc(F)c(F)c(O)c1F | 60 |  |  | activity at 1 h, 3.16 µM [1]: < 5%; activity at 3.16 µM [2]: < 5%; IC50 [4]: 1760 nM; activity at 3.16 µM [5]: < 5% |
| O=C(c1ccc(-c2cccc(NS(=O)(=O)c3ccc(F)cc3)c2)s1)c1cc(F)c(F)c(O)c1F | 32 | 27.3 |  |  |
| Cc1ccc(S(=O)(=O)Nc2cccc(-c3ccc(C(=O)c4cc(F)c(F)c(O)c4F)s3)c2)cc1 | 32 | 9.9 | 0.1 |  |
| Cc1c(O)cccc1C(=O)c1ccc(-c2cccc(NS(=O)(=O)c3ccccc3)c2)s1 |  |  | 306 |  |
| O=C(c1ccc(-c2cccc(NS(=O)(=O)c3ccccc3)c2)s1)c1c(F)ccc(O)c1Cl | < 5 | 2.7 | 15.6 |  |
| O=C(c1ccc(-c2cccc(NS(=O)(=O)c3cccc(Cl)c3)c2)s1)c1cc(F)c(F)c(O)c1F | 42 | 5.6 | 0.8 |  |
| O=C(c1ccc(Cl)c(O)c1)c1ccc(-c2cccc(NS(=O)(=O)c3ccccc3)c2)s1 |  |  | 8.2 |  |
| Cc1cccc(S(=O)(=O)Nc2cccc(-c3ccc(C(=O)c4cc(F)c(F)c(O)c4F)s3)c2)c1 | 28 | 7.9 | 0.1 |  |
| O=C(c1ccc(-c2cccc(NS(=O)(=O)c3ccccc3)c2)s1)c1c(Cl)ccc(O)c1F |  |  | 1.7 |  |
| O=C(c1ccc(-c2cccc(NS(=O)(=O)c3ccc(Cl)cc3)c2)s1)c1cc(F)c(F)c(O)c1F | 40 | 6.2 | 0.7 |  |
| O=C(c1ccc(-c2cccc(NS(=O)(=O)c3ccccc3C(F)(F)F)c2)s1)c1cc(F)c(F)c(O)c1F | 51 |  |  |  |
| O=C(c1ccc(-c2cccc(NS(=O)(=O)c3ccccc3)c2)s1)c1cccc(O)c1Cl | < 5 | 2.7 | 20.3 |  |
| O=C(c1ccc(-c2cccc(NS(=O)(=O)c3ccccc3)c2)s1)c1c(F)ccc(O)c1F |  | 30.5 | 1.4 |  |
